Here are results for 29 compounds from patent publication US20240279207A1, “SUBSTITUTED ACYL SULFONAMIDES FOR TREATING CANCER” (The Broad Institute, Inc., priority 2020, published 2024).

Each structure is given as a SMILES string. Where two headings read alike, the source gives them in different places.

Assay [1] concerns the target T1, Recombinant human His-tagged Kat6a protein (amino acids 194-810) (Homo sapiens, UniProt Q92794).
T1 construct: Kat6a protein (amino acids 194-810); His
Put plainly: Kat6a activity assay (TR-FRET, acetylation of Histone-H4-derived peptide). Type of assay: biochemical. The note with it: 60 mins at 22° C., 220 nM H4 peptide, 600 nM Acetyl Coenzyme A, read-out: KAT6A - DPF/HAT domain IC50 [mol/l] (arithmetic mean). A general note: TR-FRET usually uses a lanthanide donor and a delayed reading to cut background.

Assay [2] relates to ESR1 transcription in MVLN cells. Nature of the assay: MVLN reporter assay: repression of ESR1 transcription (luciferase signal). In kind it is cell-based. The note with it: Homo sapiens, luciferase signal after 24 h, read-out: MVLN reporter assay, IC50 [M] (arithmetic mean). The essentials: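 MVLN cells, expressing ER and stably carrying a vitellogenin A2 ERE-luciferase reporter, treated with compound in duplicate; luciferase read after 24 h with Steadylite plus. Cell density checked in parallel by Alamar Blue fluorescence (530/590 nm, 2 h) before the luciferase read.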

T1 sequence (Q92794 194-810): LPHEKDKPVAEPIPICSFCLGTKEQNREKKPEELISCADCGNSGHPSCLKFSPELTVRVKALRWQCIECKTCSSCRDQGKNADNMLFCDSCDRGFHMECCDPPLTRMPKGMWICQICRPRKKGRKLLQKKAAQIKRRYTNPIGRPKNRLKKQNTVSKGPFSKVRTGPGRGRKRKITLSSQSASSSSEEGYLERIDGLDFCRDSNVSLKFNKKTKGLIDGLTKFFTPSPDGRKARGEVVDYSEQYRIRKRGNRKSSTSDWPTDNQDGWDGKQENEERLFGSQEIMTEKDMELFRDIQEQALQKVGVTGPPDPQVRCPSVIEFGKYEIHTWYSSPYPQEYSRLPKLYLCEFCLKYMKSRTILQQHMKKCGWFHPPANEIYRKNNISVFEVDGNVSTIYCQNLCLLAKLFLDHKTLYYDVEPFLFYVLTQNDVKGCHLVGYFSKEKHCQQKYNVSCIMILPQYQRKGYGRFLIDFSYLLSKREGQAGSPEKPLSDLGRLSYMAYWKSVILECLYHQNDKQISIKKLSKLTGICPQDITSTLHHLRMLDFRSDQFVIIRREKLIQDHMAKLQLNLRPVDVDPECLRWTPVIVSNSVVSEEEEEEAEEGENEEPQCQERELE

In the case of `O=C(NS(=O)(=O)c1cc(O)cc2ccccc12)c1cc2c(F)cc(N3CCC3)cc2o1` [Example 71, 6-(Azetidin-1-yl)-4-fluoro-N-(3-hydroxynaphthalene-1-sulfonyl)-1-benzofuran-2-carboxamide], the IC50 was found to be 84.3 nM in assay [1] and 1.72e-05 M in assay [2] (MVLN, 24 h).
The matching figures for `CN(C)S(=O)(=O)c1ccc(Cl)c(S(=O)(=O)NC(=O)c2cc3c(F)cc(N4CCC4)cc3o2)c1` [Example 72, 6-(Azetidin-1-yl)-N-[2-chloro-5-(dimethylsulfamoyl)benzene-1-sulfonyl]-4-fluoro-1-benzofuran-2-carboxamide]: 159 nM and 1.89e-05 M.
Turning to `O=C(NS(=O)(=O)c1ccccc1C(=O)N1CCOCC1)c1cc2c(F)cc(N3CCC3)cc2o1` [Example 73, 6-(Azetidin-1-yl)-4-fluoro-N-[2-(morpholine-4-carbonyl)benzene-1-sulfonyl]-1-benzofuran-2-carboxamide], the IC50 in assay [1] was 105 nM; in assay [2] (MVLN, 24 h), 2.56e-06 M.
The matching figures for `COC(=O)/C=C/c1ccccc1S(=O)(=O)NC(=O)c1cc2c(F)cc(N3CCC3)cc2o1` [Example 74, Methyl (2E)-3-(2-{[6-(azetidin-1-yl)-4-fluoro-1-benzofuran-2-carbonyl]sulfamoyl}phenyl)prop-2-enoate]: 89.8 nM and 2.56e-06 M.
The matching figures for `CCOc1cccc(S(=O)(=O)NC(=O)c2cc3c(F)cc(N4CCC4)cc3o2)c1` [Example 75, 6-(Azetidin-1-yl)-N-(3-ethoxybenzene-1-sulfonyl)-4-fluoro-1-benzofuran-2-carboxamide]: 337 nM and 2.76e-06 M.
Regarding `CCN(CC)C(=O)Oc1ccccc1S(=O)(=O)NC(=O)c1cc2c(F)cc(N3CCC3)cc2o1` [Example 76, 2-{[6-(Azetidin-1-yl)-4-fluoro-1-benzofuran-2-carbonyl]sulfamoyl}phenyl diethylcarbamate], the figures for the IC50 in assay [1] and in assay [2] were 111 nM and 2.82e-06 M, respectively.
`CCS(=O)(=O)c1ccccc1S(=O)(=O)NC(=O)c1cc2c(F)cc(N3CCC3)cc2o1` [Example 77, 6-(Azetidin-1-yl)-N-[2-(ethanesulfonyl)benzene-1-sulfonyl]-4-fluoro-1-benzofuran-2-carboxamide]: the IC50 was found to be 207 nM in assay [1] and 3.45e-06 M in assay [2] (MVLN, 24 h).
For `CCOc1cccc(OCC(F)F)c1S(=O)(=O)NC(=O)c1cc2c(F)cc(N3CCC3)cc2o1` [Example 81, 6-(Azetidin-1-yl)-N-[2-(2,2-difluoroethoxy)-6-ethoxybenzene-1-sulfonyl]-4-fluoro-1-benzofuran-2-carboxamide] the same measures were 18 nM and 1.57e-07 M.
The matching figures for `O=C(NS(=O)(=O)c1cc(Br)ccc1OC(F)(F)F)c1cc2c(F)cc(N3CCC3)cc2o1` [Example 82, 6-(Azetidin-1-yl)-N-[5-bromo-2-(trifluoromethoxy)benzene-1-sulfonyl]-4-fluoro-1-benzofuran-2-carboxamide]: 19.3 nM and 3.66e-07 M.
For `CCCOc1cccc(OC(C)(C)C)c1S(=O)(=O)NC(=O)c1cc2c(F)cc(N3CCC3)cc2o1` [Example 83, 6-(Azetidin-1-yl)-N-(2-tert-butoxy-6-propoxybenzene-1-sulfonyl)-4-fluoro-1-benzofuran-2-carboxamide] the same measures were 26.7 nM and 2.85e-07 M.
Consider `CCc1cccc(OC(C)C)c1S(=O)(=O)NC(=O)c1cc2c(F)cc(N3CCC3)cc2o1` [Example 84, 6-(Azetidin-1-yl)-N-{2-ethyl-6-[(propan-2-yl)oxy]benzene-1-sulfonyl}-4-fluoro-1-benzofuran-2-carboxamide], for which the IC50 in assay [1] was determined as 42.7 nM; in assay [2] (MVLN, 24 h) it was 5.73e-07 M.
With `CCc1cccc(OCc2ccccc2)c1S(=O)(=O)NC(=O)c1cc2c(F)cc(N3CCC3)cc2o1` [Example 85, 6-(Azetidin-1-yl)-N-[2-(benzyloxy)-6-ethylbenzene-1-sulfonyl]-4-fluoro-1-benzofuran-2-carboxamide], the IC50 in assay [1] came to 45.7 nM; in assay [2] (MVLN, 24 h), 3.1e-07 M.
The matching figures for `Cc1cccc(OC(C)C)c1S(=O)(=O)NC(=O)c1cc2c(F)cc(N3CCC3)cc2o1` [Example 86, 6-(Azetidin-1-yl)-4-fluoro-N-{2-methyl-6-[(propan-2-yl)oxy]benzene-1-sulfonyl}-1-benzofuran-2-carboxamide]: 54.8 nM and 3.33e-07 M.
The matching figures for `Cc1ccc(S(=O)(=O)NC(=O)c2cc3c(F)cc(N4CCC4)cc3o2)c2ccccc12` [Example 87, 6-(azetidin-1-yl)-4-fluoro-N-(4-methylnaphthalene-1-sulfonyl)-1-benzofuran-2-carboxamide]: 64.5 nM and 1.2e-06 M.
The matching figures for `Cc1ccc(F)c(S(=O)(=O)NC(=O)c2cc3c(F)cc(N4CCC4)cc3o2)c1F` [Example 88, 6-(Azetidin-1-yl)-N-(2,6-difluoro-3-methylbenzene-1-sulfonyl)-4-fluoro-1-benzofuran-2-carboxamide]: 127 nM and 4.45e-07 M.
For `CCC(=O)Nc1cccc2c(S(=O)(=O)NC(=O)c3cc4c(F)cc(N5CCC5)cc4o3)cccc12` [Example 89, 6-(Azetidin-1-yl)-4-fluoro-N-(5-propanamidonaphthalene-1-sulfonyl)-1-benzofuran-2-carboxamide], the IC50 was 269 nM in assay [1] and over 2e-05 M in assay [2] (MVLN, 24 h).
The matching figures for `CCOC(=O)c1cn2cccc(S(=O)(=O)NC(=O)c3cc4c(F)cc(N5CCC5)cc4o3)c2n1` [Example 90, Ethyl 8-{[6-(azetidin-1-yl)-4-fluoro-1-benzofuran-2-carbonyl]sulfamoyl}imidazo[1,2-a]pyridine-2-carboxylate]: 300 nM and over 2e-05 M.
Regarding `Cc1nn(C(C)C)cc1S(=O)(=O)NC(=O)c1cc2c(F)cc(N3CCC3)cc2o1` [Example 91, 6-(Azetidin-1-yl)-4-fluoro-N-[3-methyl-1-(propan-2-yl)-1H-pyrazole-4-sulfonyl]-1-benzofuran-2-carboxamide], the IC50 in assay [1] came out at 379 nM; in assay [2] (MVLN, 24 h), 3.08e-07 M.
For `O=C(NS(=O)(=O)c1cc(C(F)(F)F)ccc1NCC(F)F)c1cc2c(F)cc(N3CCC3)cc2o1` [Example 92, 6-(Azetidin-1-yl)-N-{2-[(2,2-difluoroethyl)amino]-5-(trifluoromethyl)benzene-1-sulfonyl}-4-fluoro-1-benzofuran-2-carboxamide] the same measures were 464 nM and over 2e-05 M.
`NS(=O)(=O)c1cc(COC(=O)c2cc3c(F)cc(N4CCC4)cc3o2)ccc1OC(F)(F)F` [Example 93, [3-sulfamoyl-4-(trifluoromethoxy)phenyl]methyl 6-(azetidin-1-yl)-4-fluoro-1-benzofuran-2-carboxylate]: the IC50 in assay [1] was 1160 nM; in assay [2] (MVLN, 24 h), over 2e-05 M.
For `Cc1ncccc1S(=O)(=O)NC(=O)c1cc2c(F)cc(N3CCC3)cc2o1` [Example 94, 6-(Azetidin-1-yl)-4-fluoro-N-(2-methylpyridine-3-sulfonyl)-1-benzofuran-2-carboxamide] the same measures were 1510 nM and over 2e-05 M.
For `CN(C)C(=O)c1cccnc1S(=O)(=O)NC(=O)c1cc2c(F)cc(N3CCC3)cc2o1` [Example 95, 2-{[6-(Azetidin-1-yl)-4-fluoro-1-benzofuran-2-carbonyl]sulfamoyl}-N,N-dimethylpyridine-3-carboxamide] the same measures were 1520 nM and over 2e-05 M.
For `O=C(NS(=O)(=O)c1ccccc1C1=NOCCO1)c1cc2c(F)cc(N3CCC3)cc2o1` [Example 96, 6-(Azetidin-1-yl)-N-[2-(5,6-dihydro-1,4,2-dioxazin-3-yl)benzene-1-sulfonyl]-4-fluoro-1-benzofuran-2-carboxamide] the same measures were 6250 nM and over 2e-05 M.
In the case of `CN(C)c1ccc(Cl)c(S(=O)(=O)NC(=O)c2cc3c(F)cc(N4CCC4)cc3o2)c1` [Example 97, 6-(Azetidin-1-yl)-N-[2-chloro-5-(dimethylamino)benzene-1-sulfonyl]-4-fluoro-1-benzofuran-2-carboxamide], the IC50 was 14000 nM in assay [1] and over 2e-05 M in assay [2] (MVLN, 24 h).
Regarding `NS(=O)(=O)c1cc(OC(=O)c2cc3c(F)cc(N4CCC4)cc3o2)cc2ccccc12` [Example 98, 4-Sulfamoylnaphthalen-2-yl 6-(azetidin-1-yl)-4-fluoro-1-benzofuran-2-carboxylate], the IC50 in assay [1] is over 20000 nM; in assay [2] (MVLN, 24 h), over 2e-05 M.
The matching figures for `CC(=O)c1ccc(Cl)c(S(=O)(=O)NC(=O)c2cc3c(F)cc(N4CCC4)cc3o2)c1` [Example 99, N-(5-Acetyl-2-chlorobenzene-1-sulfonyl)-6-(azetidin-1-yl)-4-fluoro-1-benzofuran-2-carboxamide]: 272 nM and 8.1e-07 M.
For `CC(C)OC(=O)c1ccccc1S(=O)(=O)NC(=O)c1cc2c(F)cc(N3CCC3)cc2o1` [Example 101, Propan-2-yl 2-{[6-(azetidin-1-yl)-4-fluoro-1-benzofuran-2-carbonyl]sulfamoyl}benzoate] the same measures were 121 nM and 1.94e-06 M.
For `COC(=O)CCc1ccccc1S(=O)(=O)NC(=O)c1cc2c(F)cc(N3CCC3)cc2o1` [Example 102, Methyl 3-(2-{[6-(azetidin-1-yl)-4-fluoro-1-benzofuran-2-carbonyl]sulfamoyl}phenyl)propanoate] the same measures were 116 nM and 4.07e-06 M.
As to `O=C(NS(=O)(=O)c1cc(C(F)(F)F)cnc1Cl)c1cc2c(F)cc(N3CCC3)cc2o1` [Example 103, 6-(Azetidin-1-yl)-N-[2-chloro-5-(trifluoromethyl)pyridine-3-sulfonyl]-4-fluoro-1-benzofuran-2-carboxamide], the IC50 in assay [1] worked out at 613 nM; in assay [2] (MVLN, 24 h), 1.02e-05 M.
